What all share (experiment): MIC, broth microdilution (CLSI), reference strain
What all share (conditions): CAMHB

Assay [1] relates to Escherichia coli ATCC 25922.
In assay [2] the test system is Staphylococcus aureus ATCC 13709.
The test system of assay [3] is Pseudomonas aeruginosa ATCC 27853.
Assay [4] relates to Acinetobacter baumannii ATCC 19606.

The values that follow come from patent US10626144B2, “Peptide derivatives and uses thereof” (Nosopharm, priority 2014, dated 2020).

Each structure is given as a SMILES string. Numbered stars: 1 amine (or outer) side, 2 acyl side, 3 side chain; on linkers, the order of the positions; unused ones are H or OH. Square brackets hold non-standard residues; d marks the D form. Peptide text beside a SMILES is read from it. * marks the point of attachment. X6 = NC[C@@H](O)[C@@H](N[*:1])C(=O)[*:2]; Dab(3S-OH) = NC[C@H](O)[C@H](N)C(=O)O; ΔZArg = N=C(N)NCC/C=C(\N)C(=O)O; dOrn = NCCC[C@@H](N)C(=O)O; NH(CH2)4NH2 = NCCCCN*

Regarding `C[C@H](NC(=O)/C(=C/CCNC(=N)N)NC(=O)[C@H](CCCCN)NC(=O)[C@H](Cc1cnc[nH]1)NC(=O)[C@@H]1CCCN1C(=O)[C@@H](CCCN)NC(=O)CNC(=O)[C@@H](NC(=O)[C@@H](NC(=O)[C@@H](N)CCCCN)[C@@H](O)CN)[C@@H](O)CN)C(N)=O` [22.14] (H-K[Dab(3S-OH)][Dab(3S-OH)]G[dOrn]PHK[ΔZArg]A-NH2), in assay [1], the “Ec: MIC Escherichia coli ATCC 25922” value was “++ (≤8 μg/mL)”. The “Sa: MIC Staphylococcus aureus ATCC 13709” value in assay [2] was “++ (≤8 μg/mL)”. Moreover, in assay [3], the “Pa: MIC Pseudomonas aeruginosa ATCC 27853” value is reported as “− (>32 μg/mL)”. In addition, the “Ab: MIC Acinetobacter baumannii ATCC 19606” value in assay [4] was “− (>32 μg/mL)”.
For `N=C(N)NCCC[C@H](NC(=O)[C@H](CCCCN)NC(=O)[C@H](Cc1cnc[nH]1)NC(=O)[C@@H]1CCCN1C(=O)[C@@H](CCCN)NC(=O)CNC(=O)[C@@H](NC(=O)[C@@H](NC(=O)[C@@H](N)CCCCN)[C@@H](O)CN)[C@@H](O)CN)C(=O)N[C@@H](CCCCN)C(=O)NCCCCN` [22.17] (H-K[Dab(3S-OH)][Dab(3S-OH)]G[dOrn]PHKRK-{NH(CH2)4NH2}), the “Ec: MIC Escherichia coli ATCC 25922” value in assay [1] is recorded as “+ (≤32 μg/mL)”. The “Sa: MIC Staphylococcus aureus ATCC 13709” value in assay [2] is listed as “++ (≤8 μg/mL)”. Moreover, the “Pa: MIC Pseudomonas aeruginosa ATCC 27853” value in assay [3] is recorded as “− (>32 μg/mL)”. In addition, the “Ab: MIC Acinetobacter baumannii ATCC 19606” value in assay [4] is “− (>32 μg/mL)”.
Consider `C[C@H](NC(=O)[C@@H](CCCN)NC(=O)CNC(=O)[C@@H](NC(=O)[C@@H](NC(=O)[C@@H](N)CCCCN)[C@@H](O)CN)[C@@H](O)CN)C(=O)N[C@@H](Cc1cnc[nH]1)C(=O)N[C@@H](CCCCN)C(=O)N/C(=C\CCNC(=N)N)C(=O)N[C@@H](CCCCN)C(=O)NCCCCN` [22.18] (H-K[Dab(3S-OH)][Dab(3S-OH)]G[dOrn]AHK[ΔZArg]K-{NH(CH2)4NH2}), for which the “Ec: MIC Escherichia coli ATCC 25922” value in assay [1] is reported as “+ (≤32 μg/mL)”. For the same compound, in assay [2], the “Sa: MIC Staphylococcus aureus ATCC 13709” value is “++ (≤8 μg/mL)”. Further, the “Pa: MIC Pseudomonas aeruginosa ATCC 27853” value in assay [3] is “− (>32 μg/mL)”. Also, in assay [4], the “Ab: MIC Acinetobacter baumannii ATCC 19606” value is on record as “− (>32 μg/mL)”.
With `N=C(N)NCC/C=C(\NC(=O)[C@H](CCCCN)NC(=O)[C@H](Cc1cnc[nH]1)NC(=O)[C@@H]1CCCN1C(=O)[C@@H](CCCN)NC(=O)CNC(=O)[C@@H](NC(=O)[C@@H](NC(=O)[C@@H](N)CCCCN)[C@@H](O)CN)[C@@H](O)CN)C(=O)O` [22.20] (H-K[Dab(3S-OH)][Dab(3S-OH)]G[dOrn]PHK[ΔZArg]-OH), in assay [1], the “Ec: MIC Escherichia coli ATCC 25922” value is recorded as “+ (≤32 μg/mL)”. The “Sa: MIC Staphylococcus aureus ATCC 13709” value in assay [2] was “++ (≤8 μg/mL)”. In addition, the “Pa: MIC Pseudomonas aeruginosa ATCC 27853” value in assay [3] was “++ (≤8 μg/mL)”. Moreover, the “Ab: MIC Acinetobacter baumannii ATCC 19606” value in assay [4] is on record as “− (>32 μg/mL)”.
`NCCCCNC(=O)[C@H](CCCCN)NC(=O)[C@@H](CCCCN)NC(=O)[C@H](CCCCN)NC(=O)[C@H](Cc1cnc[nH]1)NC(=O)[C@@H]1CCCN1C(=O)[C@@H](CCCN)NC(=O)CNC(=O)[C@@H](NC(=O)[C@@H](NC(=O)[C@@H](N)CCCCN)[C@@H](O)CN)[C@@H](O)CN` [22.21] (H-K[Dab(3S-OH)][Dab(3S-OH)]G[dOrn]PHK[dK]K-{NH(CH2)4NH2}): the “Ec: MIC Escherichia coli ATCC 25922” value in assay [1] is reported as “− (>32 μg/mL)”. The “Sa: MIC Staphylococcus aureus ATCC 13709” value in assay [2] is on record as “++ (≤8 μg/mL)”. The “Pa: MIC Pseudomonas aeruginosa ATCC 27853” value in assay [3] is listed as “− (>32 μg/mL)”. Besides, the “Ab: MIC Acinetobacter baumannii ATCC 19606” value in assay [4] is on record as “− (>32 μg/mL)”.
Take `NCCCCNC(=O)[C@H](CCCCN)NC(=O)[C@@H](CCCN)NC(=O)[C@H](CCCCN)NC(=O)[C@H](Cc1cnc[nH]1)NC(=O)[C@@H]1CCCN1C(=O)[C@@H](CCCN)NC(=O)CNC(=O)[C@@H](NC(=O)[C@@H](NC(=O)[C@@H](N)CCCCN)[C@@H](O)CN)[C@@H](O)CN` [22.22] (H-K[Dab(3S-OH)][Dab(3S-OH)]G[dOrn]PHK[dOrn]K-{NH(CH2)4NH2}): in assay [1], the “Ec: MIC Escherichia coli ATCC 25922” value is “− (>32 μg/mL)”. Besides, in assay [2], the “Sa: MIC Staphylococcus aureus ATCC 13709” value is given as “++ (≤8 μg/mL)”. Besides, the “Pa: MIC Pseudomonas aeruginosa ATCC 27853” value in assay [3] is reported as “− (>32 μg/mL)”. The “Ab: MIC Acinetobacter baumannii ATCC 19606” value in assay [4] is recorded as “− (>32 μg/mL)”.
For the compound `CCOC(=O)[C@H](CCCCN)NC(=O)/C(=C/CCNC(=N)N)NC(=O)[C@H](CCCCN)NC(=O)[C@H](Cc1cnc[nH]1)NC(=O)[C@@H]1CCCN1C(=O)[C@@H](CCCN)NC(=O)CNC(=O)[C@@H](NC(=O)[C@@H](NC(=O)[C@@H](N)CCCCN)[C@@H](O)CN)[C@@H](O)CN` [22.28] (H-K[Dab(3S-OH)][Dab(3S-OH)]G[dOrn]PHK[ΔZArg]K-OEt), the “Ec: MIC Escherichia coli ATCC 25922” value in assay [1] was “+ (≤32 μg/mL)”. Further, the “Sa: MIC Staphylococcus aureus ATCC 13709” value in assay [2] was “++ (≤8 μg/mL)”. Moreover, the “Pa: MIC Pseudomonas aeruginosa ATCC 27853” value in assay [3] is “− (>32 μg/mL)”. In addition, the “Ab: MIC Acinetobacter baumannii ATCC 19606” value in assay [4] is listed as “− (>32 μg/mL)”.
As to `N=C(N)NCC/C=C(\NC(=O)[C@H](CCCCN)NC(=O)[C@H](Cc1cnc[nH]1)NC(=O)[C@@H]1CCCN1C(=O)[C@@H](CCCN)NC(=O)CNC(=O)[C@@H](NC(=O)[C@@H](NC(=O)[C@@H](N)CCCCN)[C@@H](O)CN)[C@@H](O)CN)C(=O)N[C@@H](CCCCN)C(=O)O` [22.29] (H-K[Dab(3S-OH)][Dab(3S-OH)]G[dOrn]PHK[ΔZArg]K-OH), the “Ec: MIC Escherichia coli ATCC 25922” value in assay [1] was “+ (≤32 μg/mL)”. Moreover, in assay [2], the “Sa: MIC Staphylococcus aureus ATCC 13709” value is given as “++ (≤8 μg/mL)”. The “Pa: MIC Pseudomonas aeruginosa ATCC 27853” value in assay [3] was “− (>32 μg/mL)”. The “Ab: MIC Acinetobacter baumannii ATCC 19606” value in assay [4] is “− (>32 μg/mL)”.
As for `N=C(N)NCCC[C@@H](NC(=O)[C@H](CCCCN)NC(=O)[C@H](Cc1cnc[nH]1)NC(=O)[C@@H]1CCCN1C(=O)[C@@H](CCCN)NC(=O)CNC(=O)[C@@H](NC(=O)[C@@H](NC(=O)[C@@H](N)CCCCN)[C@@H](O)CN)[C@@H](O)CN)C(N)=O` [22.30] (H-K[Dab(3S-OH)][Dab(3S-OH)]G[dOrn]PHK[dR]-NH2), the “Ec: MIC Escherichia coli ATCC 25922” value in assay [1] was “+ (≤32 μg/mL)”. For the same compound, the “Sa: MIC Staphylococcus aureus ATCC 13709” value in assay [2] is reported as “++ (≤8 μg/mL)”. Moreover, the “Pa: MIC Pseudomonas aeruginosa ATCC 27853” value in assay [3] is recorded as “− (>32 μg/mL)”. In assay [4], the “Ab: MIC Acinetobacter baumannii ATCC 19606” value is recorded as “− (>32 μg/mL)”.
For `N=C(N)NCC/C=C(\NC(=O)[C@H](CCCCN)NC(=O)[C@H](Cc1cnc[nH]1)NC(=O)[C@@H]1CCCN1C(=O)[C@@H](CCCN)NC(=O)CNC(=O)[C@@H](NC(=O)[C@@H](NC(=O)[C@@H](N)CCCCN)[C@@H](O)CN)[C@@H](O)CN)C(N)=O` [22.31] (H-K[Dab(3S-OH)][Dab(3S-OH)]G[dOrn]PHK[ΔZArg]-NH2), the “Ec: MIC Escherichia coli ATCC 25922” value in assay [1] is “++ (≤8 μg/mL)”. Besides, the “Sa: MIC Staphylococcus aureus ATCC 13709” value in assay [2] is recorded as “++ (≤8 μg/mL)”. The “Pa: MIC Pseudomonas aeruginosa ATCC 27853” value in assay [3] is given as “− (>32 μg/mL)”. Moreover, the “Ab: MIC Acinetobacter baumannii ATCC 19606” value in assay [4] was “− (>32 μg/mL)”.
Consider `N=C(N)NCC/C=C(\NC(=O)[C@H](CCCCN)NC(=O)[C@H](Cc1cnc[nH]1)NC(=O)[C@@H]1CCCN1C(=O)[C@@H](CCCN)NC(=O)CNC(=O)[C@H](NC(=O)[C@@H](NC(=O)[C@@H](N)CCCCN)[C@@H](O)CN)[C@H](O)CN)C(=O)N[C@@H](CCCCN)C(=O)NCCCCN` [22.32] (H-K[Dab(3S-OH)][X6]G[dOrn]PHK[ΔZArg]K-{NH(CH2)4NH2}), for which, in assay [1], the “Ec: MIC Escherichia coli ATCC 25922” value was “− (>32 μg/mL)”. In addition, the “Sa: MIC Staphylococcus aureus ATCC 13709” value in assay [2] is given as “++ (≤8 μg/mL)”. For the same compound, the “Pa: MIC Pseudomonas aeruginosa ATCC 27853” value in assay [3] is reported as “− (>32 μg/mL)”. Further, the “Ab: MIC Acinetobacter baumannii ATCC 19606” value in assay [4] was “− (>32 μg/mL)”.
